Results published in ChEMBL document CHEMBL5338713, “Discovery of pomalidomide-based PROTACs for selective degradation of histone deacetylase 8” (Eur J Med Chem, 2022).
Activity calls are given as the source filed them. The calls are words filed in the database; no cut-off is given here.

Experiments:
Assay type in all cases: cell-based
[1] = target: T1, Protein cereblon/Histone deacetylase 8 (Homo sapiens) (UniProt Q9BY41+Q96SW2); assay: PROTAC activity at HDAC8/CRBN in human HCT-116 cells assessed as degradation of HDAC8 at 5 uM measured after 10 hrs in presence of BRD73954 by Western blot analysis
T1 sequence (Q96SW2 whole entry, looked up, one chain of several): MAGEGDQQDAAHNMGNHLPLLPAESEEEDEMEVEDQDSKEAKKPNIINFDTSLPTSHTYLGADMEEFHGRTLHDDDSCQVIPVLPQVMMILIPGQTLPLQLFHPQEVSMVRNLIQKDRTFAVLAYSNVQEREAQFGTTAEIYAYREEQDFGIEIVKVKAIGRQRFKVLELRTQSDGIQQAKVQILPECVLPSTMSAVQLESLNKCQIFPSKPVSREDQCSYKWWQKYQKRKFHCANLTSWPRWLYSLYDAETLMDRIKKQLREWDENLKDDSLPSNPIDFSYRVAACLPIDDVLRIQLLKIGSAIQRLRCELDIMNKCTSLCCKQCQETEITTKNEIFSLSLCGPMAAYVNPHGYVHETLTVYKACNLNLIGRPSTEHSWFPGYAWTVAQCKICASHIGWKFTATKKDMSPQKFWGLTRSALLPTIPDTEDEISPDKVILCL

[2] = target: T2, Histone deacetylase 8 (Homo sapiens) (UniProt Q9BY41); assay: Induction of HDAC8 degradation in human HCT-116 cells at 5 uM measured at 24 hrs by Western blot analysis
T2 sequence (whole entry): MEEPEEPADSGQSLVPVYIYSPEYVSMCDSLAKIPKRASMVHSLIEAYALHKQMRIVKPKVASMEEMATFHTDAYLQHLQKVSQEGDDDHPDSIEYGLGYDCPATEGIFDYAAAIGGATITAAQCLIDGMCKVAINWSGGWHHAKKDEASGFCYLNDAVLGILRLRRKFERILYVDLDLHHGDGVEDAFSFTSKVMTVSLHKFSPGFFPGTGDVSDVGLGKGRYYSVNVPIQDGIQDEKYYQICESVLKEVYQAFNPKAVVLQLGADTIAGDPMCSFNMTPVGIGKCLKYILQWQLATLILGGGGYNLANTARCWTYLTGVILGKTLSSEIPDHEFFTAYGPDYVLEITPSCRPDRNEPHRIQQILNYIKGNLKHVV

[3] = target: T1, Protein cereblon/Histone deacetylase 8 (Homo sapiens); assay: PROTAC activity at HDAC8/CRBN in human HCT-116 cells assessed as degradation of HDAC8 at 5 uM measured after 10 hrs in presence of E3 ligase inhibitor by Western blot analysis
[4] = target: T2, Histone deacetylase 8 (Homo sapiens); assay: Induction of HDAC8 degradation in human HCT-116 cells assessed as hook effect measured at > 40 uM for 10 hrs by Western blot analysis
[5] = target: Histone deacetylase 3 (Homo sapiens) (UniProt O15379); assay: Induction of HDAC3 degradation in human HCT-116 cells at 0.1 to 160 uM measured after 10 hrs by Western blot analysis; details: dose 0.1-160 µM
Histone deacetylase 3 (Homo sapiens), sequence (O15379 whole entry): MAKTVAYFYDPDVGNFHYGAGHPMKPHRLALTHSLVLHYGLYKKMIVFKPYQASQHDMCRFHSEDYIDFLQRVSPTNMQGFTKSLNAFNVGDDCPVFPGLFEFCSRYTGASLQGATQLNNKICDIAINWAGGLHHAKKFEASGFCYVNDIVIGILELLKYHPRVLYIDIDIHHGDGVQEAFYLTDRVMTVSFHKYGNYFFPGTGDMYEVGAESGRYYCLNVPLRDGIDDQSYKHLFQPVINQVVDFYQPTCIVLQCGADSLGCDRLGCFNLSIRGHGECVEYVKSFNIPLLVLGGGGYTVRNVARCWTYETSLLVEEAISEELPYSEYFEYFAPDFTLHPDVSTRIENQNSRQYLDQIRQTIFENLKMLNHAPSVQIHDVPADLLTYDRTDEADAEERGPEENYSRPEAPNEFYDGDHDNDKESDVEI

[6] = target: T2, Histone deacetylase 8 (Homo sapiens); assay: Induction of HDAC8 degradation in human HCT-116 cells at 5 uM by Western blot analysis relative to control
[7] = target: T2, Histone deacetylase 8 (Homo sapiens); assay: Induction of HDAC8 degradation in human HCT-116 cells assessed as increase in SMC3 acetylation level measured after 10 hrs by Western blot analysis; details: dose 0.1-160 µM
[8] = target: T2, Histone deacetylase 8 (Homo sapiens); assay: Induction of HDAC8 degradation in human HCT-116 cells assessed as maximum degradation at 0.1 to 160 uM measured after 10 hrs by Western blot analysis relative to control; details: dose 0.1-160 µM
[9] = target: T1, Protein cereblon/Histone deacetylase 8 (Homo sapiens); assay: PROTAC activity at HDAC8/CRBN in human HCT-116 cells assessed as degradation of HDAC8 at 5 uM measured after 10 hrs in presence of bafilomycin Al by Western blot analysis
[10] = target: T3, Protein deacetylase HDAC6 (Homo sapiens) (UniProt Q9UBN7); assay: Induction of HDAC6 degradation in human HCT-116 cells assessed as increase in alpha-tubulin acetylation level measured after 10 hrs by Western blot analysis; details: dose 0.1-160 µM
T3 sequence (whole entry): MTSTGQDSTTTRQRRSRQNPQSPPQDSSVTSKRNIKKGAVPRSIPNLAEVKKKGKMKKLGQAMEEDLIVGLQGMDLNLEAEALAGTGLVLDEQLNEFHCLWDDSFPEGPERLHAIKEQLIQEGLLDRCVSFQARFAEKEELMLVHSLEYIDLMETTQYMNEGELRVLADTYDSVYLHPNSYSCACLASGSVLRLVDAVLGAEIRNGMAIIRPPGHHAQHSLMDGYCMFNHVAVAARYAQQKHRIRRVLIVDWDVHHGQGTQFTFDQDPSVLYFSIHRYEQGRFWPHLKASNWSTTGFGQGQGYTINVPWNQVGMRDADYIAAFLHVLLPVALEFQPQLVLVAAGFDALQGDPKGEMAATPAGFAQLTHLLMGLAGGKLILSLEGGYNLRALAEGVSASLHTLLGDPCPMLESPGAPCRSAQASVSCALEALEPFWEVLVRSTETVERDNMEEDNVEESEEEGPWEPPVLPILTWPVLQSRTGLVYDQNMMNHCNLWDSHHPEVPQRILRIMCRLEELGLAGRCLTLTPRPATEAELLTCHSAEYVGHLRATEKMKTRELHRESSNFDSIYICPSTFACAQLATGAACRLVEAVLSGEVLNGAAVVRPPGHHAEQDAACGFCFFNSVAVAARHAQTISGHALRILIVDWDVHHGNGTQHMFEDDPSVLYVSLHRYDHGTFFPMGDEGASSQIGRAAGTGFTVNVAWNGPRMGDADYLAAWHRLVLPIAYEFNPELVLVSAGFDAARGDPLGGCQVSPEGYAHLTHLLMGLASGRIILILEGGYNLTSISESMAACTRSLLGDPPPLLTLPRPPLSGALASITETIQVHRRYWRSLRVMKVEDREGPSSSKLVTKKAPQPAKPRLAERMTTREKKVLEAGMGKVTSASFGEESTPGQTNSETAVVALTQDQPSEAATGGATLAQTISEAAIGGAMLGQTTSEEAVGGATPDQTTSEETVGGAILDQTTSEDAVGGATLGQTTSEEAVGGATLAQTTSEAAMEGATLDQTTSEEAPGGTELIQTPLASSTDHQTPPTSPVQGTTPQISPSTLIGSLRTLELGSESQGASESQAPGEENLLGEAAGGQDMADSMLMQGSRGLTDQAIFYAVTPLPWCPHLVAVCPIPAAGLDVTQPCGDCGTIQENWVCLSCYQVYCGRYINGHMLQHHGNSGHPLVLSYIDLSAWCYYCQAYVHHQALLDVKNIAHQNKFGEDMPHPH

[11] = target: T1, Protein cereblon/Histone deacetylase 8 (Homo sapiens); assay: PROTAC activity at HDAC8/CRBN in human HCT-116 cells assessed as degradation of HDAC8 at 5 uM measured after 10 hrs in presence of MG132 by Western blot analysis
[12] = target: T1, Protein cereblon/Histone deacetylase 8 (Homo sapiens); assay: PROTAC activity at HDAC8/CRBN in human HCT-116 cells assessed as degradation of HDAC8 at 5 uM measured after 10 hrs in presence of pomalidomide by Western blot analysis
[13] = target: T2, Histone deacetylase 8 (Homo sapiens); assay: Induction of HDAC8 degradation in human HCT-116 cells at 5 uM measured at 2 hrs by Western blot analysis
[14] = target: T4, Protein deacetylase HDAC6 (Homo sapiens, UniProt Q9UBN7); assay: Induction of HDAC6 degradation in human HCT-116 cells measured after 10 hrs by Western blot analysis
T4 sequence (Q9UBN7 whole entry): T3 sequence (whole entry)

[15] = target: Histone deacetylase 1 (Homo sapiens) (UniProt Q13547); assay: Induction of HDAC1 degradation in human HCT-116 cells at 0.1 to 160 uM measured after 10 hrs by Western blot analysis; details: dose 0.1-160 µM
Histone deacetylase 1 (Homo sapiens), sequence (Q13547 whole entry): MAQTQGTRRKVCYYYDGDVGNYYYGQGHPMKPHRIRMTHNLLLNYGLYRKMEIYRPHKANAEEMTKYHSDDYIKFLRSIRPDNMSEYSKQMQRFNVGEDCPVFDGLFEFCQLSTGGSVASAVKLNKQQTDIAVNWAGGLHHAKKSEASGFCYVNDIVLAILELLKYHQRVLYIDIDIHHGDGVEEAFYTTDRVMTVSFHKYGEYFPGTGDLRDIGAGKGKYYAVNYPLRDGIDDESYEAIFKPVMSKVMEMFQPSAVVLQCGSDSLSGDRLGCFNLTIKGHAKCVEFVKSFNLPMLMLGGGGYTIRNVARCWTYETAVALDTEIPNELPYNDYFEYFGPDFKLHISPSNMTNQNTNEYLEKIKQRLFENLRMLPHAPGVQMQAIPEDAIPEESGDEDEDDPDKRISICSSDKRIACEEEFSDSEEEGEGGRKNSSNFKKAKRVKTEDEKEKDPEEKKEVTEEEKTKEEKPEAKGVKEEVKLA

[16] = target: T2, Histone deacetylase 8 (Homo sapiens); assay: Induction of HDAC8 degradation in human HCT-116 cells assessed as maximum degradation at 5 uM measured at 10 hrs by Western blot analysis

Activity [1]: inactive | Activity [2]: Active | Activity [3]: inactive | Activity [4]: Active | Activity [5]: inactive | Activity [6]: 85% | Activity [7]: Dose-Dependent Effect | Emax [8]: 93% | Activity [9]: Active | Activity [10]: Dose-Dependent Effect | Activity [11]: inactive | Activity [12]: inactive | Activity [13]: Active | DC50 [14]: 4.95 µM | Activity [15]: inactive | Activity [16]: Active
SMILES: O=C(CCCCOc1ccc(CCNC(=O)c2cccc(C(=O)NO)c2)cc1)NCCCCCCNc1cccc2c1C(=O)N(C1CCC(=O)NC1=O)C2=O (stereo unspecified)
